In patent US20120173160A1, “METHODS AND SYSTEMS FOR QUANTITATIVELY ASSESSING BIOLOGICAL EVENTS USING ENERGY-PAIRED SCORING” (The Trustees of the University of Pennsylvania, priority 2010, published 2012):
Entries after “also recorded” stand apart in the source; their conditions may differ.

How the values were obtained:
Type in all cases: cell-based
Akt-mTOR pathway = assay: EPS Akt-mTOR pathway score in expression data set of cells treated with 1294 compounds; details: screen of 1294 compounds, strongest negative pathway scores
Description: A potential application of EPS is to identify inhibitors of a selected pathway by searching for compounds that induce gene expression changes with a strongly negative pathway score. To test EPS's ability to identify small-molecule inhibitors of a pathway from a large library of compounds, an Akt-mTOR pathway signature was developed using gene expression profiles from the prostates of transgenic mice expressing activated Akt that were treated with either the mTOR inhibitor RAD001 or a vehicle control (Majumder et al.). This signature was used to estimate Akt-mTOR pathway activity in a data set derived from three cell lines that had been treated with 1294 different compounds (Lamb et al.). […] In fact, test samples treated with LY-294002 represented 8 of the top 9 samples identified (FIG. 11A).

TGFβ pathway [1] = assay: Western blot of Smad2 phosphorylation in NMuMG cells treated with TGF-β1; details: NMuMG cells, 0.15, 0.5, 1.5 or 15 ng/ml, 6 hours
Description: To determine whether EPS could quantitatively estimate signal pathway activity in a biological data set, a genome-wide expression data set was generated to reflect graded increases in TGFβ pathway activation by treating the mammary epithelial cell line, NMuMG, with increasing dosages of TGF-β1 for 6 hours. Signature genes were selected using a p-value of 10^−10 associated with the changes in expression without fold-change cutoff.
(§1) To determine whether EPS could quantitatively estimate dose-dependent increases in TGFβ pathway activity using gene expression data, EPS prediction was compared to biochemical analysis of phospho-Smad2 levels in the same samples. Using a previously published TGFβ signature generated from NMuMG cells treated with TGF-β1 for 24 hours, it was determined whether SVD or EPS could detect pathway activation in NMuMG cells treated with increasing doses of TGF-β1. SVD detected pathway activation only in samples treated with the highest dose of TGFβ (15 ng/ml; FIG. 6B).

TGFβ pathway [2] = assay: EPS estimate of TGFβ pathway activity from gene expression of NMuMG cells treated with TGF-β1
Description: as §1
As expected from increasing TGFβ effects on mRNA levels over time, EPS predicted higher pathway activity in training set samples treated with TGF-β1 for 24 hours than in test samples treated with TGF-β1 for 6 hours. […] Therefore, a TGFβ signature was generated using NMuMG cells treated with the lowest dose of TGFβ (0.15 ng/ml) for the shortest period of time (6 hrs) as the training set. This signature was then used to test the ability of SVD and EPS to predict pathway activation at different TGFβ doses.

Row | Molecule | test samples treated with the compound among the top 9 samples identified (Akt-mTOR pathway) | TGFβ pathway activity as levels of phosphorylated Smad2 (TGFβ pathway [1]) | EPS-predicted TGFβ pathway activation, signature from 24 hours treatment (TGFβ pathway [2]; NMuMG cells, 0.5, 1.5 and 15 ng/ml, 6 hours) | EPS-estimated TGFβ pathway activation, signature from 0.15 ng/ml for 6 hrs (TGFβ pathway [2]; NMuMG cells, increasing doses (0.5, 1.5, 15 ng/ml))
1 | O=c1cc(N2CCOCC2)oc2c(-c3ccccc3)cccc12 [LY-294002] | 8 |  |  | 
2 | TGF-β1: TGF-β1 used to treat the mammary epithelial cell line NMuMG |  | dose-dependent increase in TGFβ pathway activity; also recorded: elevated phospho-Smad2 was detected at all doses | significantly increased pathway activation | progressive increase of TGFβ pathway activation
